# According to patent US12295970B2, “Imidazoquinoline compounds and prodrugs thereof” (UNIVERSITY OF KANSAS, priority 2019, dated 2025):
# “Also recorded” adds a separate entry of the source.
# How the values were obtained:
# [1] = Depot effect: ear inflammation test in healthy rabbits; assay type: in vivo, New Zealand White rabbits; conditions: s.c. into rabbit ear
# Experimental: It was observed that a local injection of the R848-Toco/HA-Toco nano-emulsion forms a depot at the site of injection and releases the loaded agonist in a sustained fashion, producing prolonged and localized immune stimulation while minimizing systemic off-target effects. To test the localization effect, an ear inflammation test was conducted in healthy rabbits. R848-Toco/HA-Toco and unformulated R848 were injected subcutaneously into opposing rabbit ears of subjects, and local inflammation and systemic TNF-α responses were observed.
# New Zealand White rabbits (3-4 kg) were anaesthetized using 5% isoflurane and injected subcutaneously with 2.5 mg of R848 in 250 μl of vehicle into the ipsilateral ear. R848-Toco/HA-Toco was formulated as described above, and the R848 parent compound was formulated in 0.5% polysorbate 80 (w/v) in water. For histopathology, punch biopsies were taken 24 hours post injection, fixed in formalin, and analyzed by a board-certified veterinary pathologist (Kansas State Veterinary Hospital, […], KS, USA). In separate animals, blood samples were taken pre-injection and at 0.5, 1, 2, 5, and 24 h post-injection time points from the contra-lateral ear (marginal vein, 22 ga). Whole blood was centrifuged at 1500×g for 5 min and the serum were collected for cytokine evaluation. All samples and controls were prepared, and serum cytokine levels were measured.
# [2] = In vitro release kinetics (dialysis method); assay type: physicochemical; conditions: PBS media, pH 7.4
# Experimental: Solutions (1 mL) of free R848 in DMSO, R848/HA-Toco in water, R848-Toco in DMSO, and R848-Toco/HA-Toco in water, with a concentration of 1 mg/mL on R848 basis were dialyzed using SnakeSkin® dialysis tubing (MWCO […]) against 30 mL of phosphate buffered saline release medium (PBS, 10 mM sodium phosphate, 137 mM NaCl, pH 7.4) with 0.5% (w/v) polysorbate 80 at 37° C. At predetermined time points, 1 mL aliquots of release medium were sampled and replaced with an equal volume of fresh medium. The samples were kept frozen (−20° C.) until HPLC analysis.
# Results: The in vitro release profiles of R848 and R848-Toco from the HA-Toco were studied using a dialysis method. […] The release of parent R848 formulated with HA-Toco was tested in PBS media, with free R848 dissolved in DMSO as a control. Similar release kinetics were observed whether R848 was formulated with HA-Toco or without ([…]), and in both conditions nearly 100% of the agonist was released over 24 h (FIG. 4A).
# human TLR7 (hTLR7) = molecular target: T1, human TLR7 (hTLR7) (Homo sapiens, UniProt Q9NYK1); test: In vitro TLR7 activity assay (HEK-Blue hTLR7, QUANTI-Blue, Example 3); assay type: cell-based; conditions: 16 h incubation; Null 1-k subtracted
# T1 construct: host or cells: HEK-293 (HEK-Blue hTLR7)
# T1 sequence (Q9NYK1 27-1049): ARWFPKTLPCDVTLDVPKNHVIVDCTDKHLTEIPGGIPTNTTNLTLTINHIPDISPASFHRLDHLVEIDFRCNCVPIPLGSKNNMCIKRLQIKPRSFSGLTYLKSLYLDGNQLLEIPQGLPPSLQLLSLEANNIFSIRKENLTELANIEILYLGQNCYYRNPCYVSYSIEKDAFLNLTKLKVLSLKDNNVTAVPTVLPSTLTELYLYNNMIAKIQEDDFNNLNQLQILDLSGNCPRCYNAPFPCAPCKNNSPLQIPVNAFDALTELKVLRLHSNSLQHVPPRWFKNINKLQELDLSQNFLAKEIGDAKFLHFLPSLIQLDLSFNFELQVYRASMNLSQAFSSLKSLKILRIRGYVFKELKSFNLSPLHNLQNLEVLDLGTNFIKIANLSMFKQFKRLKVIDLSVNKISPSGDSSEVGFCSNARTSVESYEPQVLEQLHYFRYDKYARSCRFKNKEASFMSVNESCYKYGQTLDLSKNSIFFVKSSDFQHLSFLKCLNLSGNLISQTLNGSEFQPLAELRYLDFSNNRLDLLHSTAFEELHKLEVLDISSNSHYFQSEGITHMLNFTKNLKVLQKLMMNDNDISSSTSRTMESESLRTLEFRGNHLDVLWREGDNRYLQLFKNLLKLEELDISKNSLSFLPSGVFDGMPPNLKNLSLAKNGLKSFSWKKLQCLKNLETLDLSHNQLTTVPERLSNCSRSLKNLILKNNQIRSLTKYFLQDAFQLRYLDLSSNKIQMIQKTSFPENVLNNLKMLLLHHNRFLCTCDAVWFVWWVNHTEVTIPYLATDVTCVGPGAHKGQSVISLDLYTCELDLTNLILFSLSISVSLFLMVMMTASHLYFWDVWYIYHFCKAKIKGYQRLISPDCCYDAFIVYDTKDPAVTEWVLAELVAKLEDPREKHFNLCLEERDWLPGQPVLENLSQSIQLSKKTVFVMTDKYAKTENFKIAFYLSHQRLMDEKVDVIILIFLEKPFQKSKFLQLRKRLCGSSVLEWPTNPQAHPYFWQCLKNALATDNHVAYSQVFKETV
# Experimental: TLR agonist activity was measured in a dose-response study using reporter cell lines expressing the human TLR7 (hTLR7). […] The hTLR7 activity of R848-Toco, the formulation and its components were assessed using HEK-293 cells co-transfected with the hTLR7 gene and an inducible SEAP reporter gene along with the corresponding null control line (HEK-Blue™ hTLR7 and Null-1k cells, Invivogen). Cells were maintained in DMEM media with selective antibiotics according to the manufacturer protocol.^26 HEK-Blue™ cells were seeded into 96 well plates at a density of 220,000 cells/mL with 180 μL/well of culture medium. Stock solutions in DMSO were first serially diluted to seven concentrations (DMSO solutions further diluted into H2O). Each well was stimulated with 20 μL of agonists or agonist-free controls (equivalent concentration of HA-Toco, D-α-Tocopherol succinate, PBS or […] DMSO) at the determined final concentrations in 5 replicates. After 16 h of incubation at 37° C. in a 5% CO2 atmosphere, 20 μL of the supernatant from each well was sampled and spiked into 180 μL of QUANTI-Blue™ solution followed by incubation for 1 h at 37° C. Relative hTLR7 activity was then analyzed by UV-Vis at 637 nm using a microplate UV reader (SpectraMAX GeminiXS, Molecular Devices, San Jose, CA, USA). For each compound and concentration, a corresponding sample was applied to the HEK-Blue™ Null-1k cell line. The TLR7 agonist activity was determined after averaging across hTLR7 replications and subtracting the averaged Null response.
# Activation levels were calculated as the difference between the average readings of the hTLR7 cell line and the Null 1-k cell line, to account for non-hTLR7 related induction of NF-κB. […] Therefore, this study confirmed that R848-Toco, formulated with HA-Toco as an emulsion, maintained its TLR agonist activity. […]
structure (smiles),measurement,setting,value
"CCOCc1nc2c(N)nc3ccccc3c2n1CC(C)(C)O [Compound 2, resiquimod, reference compound]",local response at the injection site,[1]; 2.5 mg of R848 in 250 μl,minimum change; also recorded: no local reaction
same,plasma TNF-α levels,"[1]; 0.5-24 h post-injection, n=4",significant elevation
same,agonist released over 24 h,[2],~100%
same,"hTLR7 activation (NF-κB, in words)",human TLR7 (hTLR7),strong dose-dependent activation
